In patent US9751919B2, “Antimicrobial compositions comprising a hyaluronic acid binding peptide and a β-lactam antibiotic” (priority 2012, dated 2017):
Where “and” joins values, the source holds several entries; their conditions need not be identical. Identical values can stand only once. Entries after “also recorded” stand apart in the source; their conditions may differ. Marks after values point to notes of the source that are not given here.

Assays:
VISA = assay: MIC (CLSI broth dilution), agent alone; format: cell-based, Staphylococcus aureus; set-up: unit: µg/mL
Method: (§1) VISA (strains 92, 95 and 96), VRSA (strains 105 and 106) and E. coli (strain 69717) isolates were also tested. One MSSA was used as a control. All MICs were assessed using CLSI guidelines. Also assessed was the activity of cefazolin, ceftriazone, meropenem, and a piperacillin/tazobactam combination antibiotic. Minimum inhibitory concentration (MIC) is the lowest concentration of an antimicrobial that will inhibit the visible growth of a microorganism after incubation.
(§2) Antimicrobial Susceptibility Testing: A custom designed panel of antimicrobials was created. The panel included: PEP35, penicillin, piperacillin/tazobactam, cefazolin, ceftriaxone, meropenem, clarithromycin, clindamycin, gentamicin, amikacin, vancomycin, ciprofloxacin, levofloxacin, moxifloxacin, linezolid, trimethoprim/sulfamethoxazole and doxycycline. These agents were obtained as laboratory grade powders from their respective manufacturers. Stock solutions were prepared and dilutions made as described by the Clinical Laboratory Standards Institute (2005 CLSI). Following two subcultures from frozen stock the MICs of the antimicrobial agents for the isolates were determined by the CLSI 2005 approved broth macrodilution method. Briefly, test tubes containing doubling antibiotic dilutions (2 ml per tube) of cation adjusted Mueller-Hinton broth (eg. for Enterobacteriaceae) with or without lysed horse blood (2-5% V/V) [eg. for S. pneumoniae] were inoculated to achieve a final concentration of approximately 5×10^5 CFU/ml and incubated in ambient air for 24 hours prior to reading. Colony counts were performed periodically to confirm inocula. Quality control was performed every two weeks using a variety of ATCC QC organisms including; S. aureus 29213, E. faecalis 29212, E. coli 25922 and P. aeruginosa 27853. For all antimicrobials as well as PEP35, CLSI criteria were used.
(§3) One MSSA was used as a control. All MICs were assessed using CLSI guidelines.

[1] = tested on: MRSA, VISA, VRSA and E. coli; assay: Checkerboard assay, panel statement; format: cell-based; settings: with β-lactams versus MRSA, VISA, VRSA and E. coli
Method: (§4) Checkerboard assays were carried out as described by Bonapace et al.
(§5) Diagnostic Microbiology and Infectious Diseases 2002; 44:363-366. In brief, checkerboard assays were performed in 96 well microtitre trays using an 8-by-8 well configuration. […] 96-well custom designed microtitre plates contained 100 ul/well of cation adjusted Mueller-Hinton broth (eg. for Enterobacteriaceae) with or without lysed horse blood (2-5% V/V) [eg. for S. pneumoniae] and were inoculated to achieve a final concentration of approximately 5×10^5 CFU/ml and incubated in ambient air for 24 hours prior to reading. Colony counts were performed periodically to confirm inocula. Quality control was performed every two weeks using a variety of ATCC QC organisms including; S. pneumoniae 49619, S. aureus 29213, E. faecalis 29212, E. coli 25922 and P. aeruginosa 27853. […] All peptides were assessed for synergy with β-lactams and vancomycin. For all antimicrobials as well as the peptides, CLSI criteria were used.
(§6) The fractional inhibitory concentration index (FIC index) was used to interpret synergy, antagonism or additivity/indifference. FIC index=FIC of drug A+FIC of drug B where:
(§7) The FIC of drug A and drug B was calculated as follows, FIC drug A=MIC of drug A in combination/MIC of drug A alone and FIC of drug B=MIC of drug B in combination/MIC of drug B alone. Synergy was defined as FIC index ≦0.5, additivity/indifference defined as a FIC between 0.5 and 4 and antagonism defined as an FIC index >4.
The fractional inhibitory concentration index (FIC index) was used to interpret synergy, antagonism or additivity/indifference. FIC index=FIC of drug A+FIC of drug B where the FIC of drug A and drug B was calculated as follows, FIC drug A=MIC of drug A in combination/MIC of drug A alone and FIC of drug B=MIC of drug B in combination/MIC of drug B alone. Synergy was defined as FIC index ≦0.5, additivity/indifference defined as an FIC of between 0.5 and 4 and antagonism defined as an FIC index >4.

E. coli [2] = assay: MIC (CLSI broth dilution), agent alone; format: cell-based, Escherichia coli; settings: E. coli 69716; agent alone
Method: as §1, §2
(§8) One MS SA and ATCC reference strains were used as controls. All MICs were assessed using CLSI guidelines.

[3] = tested on: MRSA, VISA, VRSA and E. coli; assay: MIC, agent alone, panel statement; format: cell-based; settings: versus MRSA, VISA, VRSA and E. coli
Method: as §1, §2

VRSA = assay: MIC (CLSI broth dilution), agent alone; format: cell-based, Staphylococcus aureus; set-up: unit not given beside the values
Method: as §1, §2, §3

HA-MRSA = assay: MIC (CLSI broth dilution), agent alone; format: cell-based, Staphylococcus aureus; settings: agent alone
Method: as §1
as §2, with “The panel included: PEP35, penicillin, piperacillin/tazobactam, cefazolin, ceftriaxone, meropenem, clarithromycin, clindamycin, gentamicin, amikacin, vancomycin, ciprofloxacin, levofloxacin, moxifloxacin, linezolid, trimethoprim/sulfamethoxazole and doxycycline.” left out, “27853.” for “27853. For all antimicrobials as well as PEP35, CLSI criteria were used.”
as §3, §8

CA-MRSA = assay: MIC (CLSI broth dilution), agent alone; format: cell-based, Staphylococcus aureus; settings: agent alone, in µg/mL
Method: as §1
as §2, with “The panel included: PEP35, penicillin, piperacillin/tazobactam, cefazolin, ceftriaxone, meropenem, clarithromycin, clindamycin, gentamicin, amikacin, vancomycin, ciprofloxacin, levofloxacin, moxifloxacin, linezolid, trimethoprim/sulfamethoxazole and doxycycline.” left out, “27853.” for “27853. For all antimicrobials as well as PEP35, CLSI criteria were used.”
as §3, §8

P. mirabilis = assay: Checkerboard assay (FIC index); format: cell-based, Proteus mirabilis; settings: antibiotic combined with PEP35
Method: (§9) The checkerboard assays were carried out as described by Eliopoulos and Moellering (Chapter 9) in Antibiotic in Laboratory Medicine, Lorian Ed. 1996 as well as Bonapace et al. Diagnostic Microbiology and Infectious Diseases 2002; 44:363-366 and Bonapace et al. Diagnostic Microbiology and Infectious Diseases 2000; 38:43-50. In brief, checkerboard assays were performed in 96 well microtitre trays using an 8-by-8 well configuration. […] 96-well custom designed microtitre plates contained 100 ul/well of cation adjusted Mueller-Hinton broth (eg. for Enterobacteriaceae) with or without lysed horse blood (2-5% V/V) [eg. for S. pneumoniae] and were inoculated to achieve a final concentration of approximately 5×10^5 CFU/ml and incubated in ambient air for 24 hours prior to reading. Colony counts were performed periodically to confirm inocula. Quality control was performed every two weeks using a variety of ATCC QC organisms including; S. pneumoniae 49619, S. aureus 29213, E. faecalis 29212, E. coli 25922 and P. aeruginosa 27853. For all antimicrobials as well as PEP35, CLSI criteria was used.
as §6
(§10) The FIC of drug A and drug B is calculated as follows, FIC drug A=MIC of drug A in combination/MIC of drug A alone and FIC of drug B=MIC of drug B in combination/MIC of drug B alone. Synergy is defined as FIC index ≦0.5, additivity/indifference FIC >0.5-4 and antagonism FIC index >4.
(§11) Antimicrobials used included PEP35, cefazolin, ceftriaxone, vancomycin, linezolid, tigecycline and daptomycin versus Gram-positive cocci and PEP35, gentamicin, levofloxacin, piperacillin/tazobactam, meropenem and colistin (Polymyxin E) versus Gram-negative bacilli. These agents were obtained as laboratory grade powders from their respective manufacturers. Stock solutions were prepared and dilutions made as described by the Clinical Laboratory Standards Institute (2005 CLSI).
(§12) Organisms included Gram-positive cocci (2 strains of each): Methicillin-susceptible Staphylococcus aureus (MSSA), community-associated (CA) and healthcare-associated (HA) methicillin-resistant Staphylococcus aureus (MRSA), vancomycin-intermediate Staphylococcus aureus (VISA), vancomycin-resistant Staphylococcus aureus (VRSA), methicillin-resistant Staphylococcus epidermidis (MRSE), Streptococcus pyogenes, Streptococcus agalactiae, Streptococcus pneumoniae, Enterococcus faecalis, Enterococcus faecium and vancomycin-resistant enterococcus (VRE). Gram-negative bacilli tested (2 strains of each) included: E. coli, Pseudomonas aeruginosa, Klebsiella pneumoniae, K. oxytoca, Enterobacter cloacae, P. mirabilis and Stenotrophomonas maltophilia. MIC testing, following two subcultures from frozen stock were determined by the CLSI 2005 approved broth microdilution method.

K. oxytoca = assay: Checkerboard assay (FIC index); format: cell-based, Klebsiella oxytoca; settings: antibiotic combined with PEP35
Method: as §9, §6, §10, §11, §12

S. maltophilia = assay: Checkerboard assay (FIC index); format: cell-based, Stenotrophomonas maltophilia; settings: antibiotic combined with PEP35
Method: as §9, §6, §10, §11, §12

E. coli [4] = assay: Checkerboard assay (FIC index); format: cell-based, Escherichia coli; settings: antibiotic combined with PEP35
Method: as §4, §5, §6, §7, §9, §10, §11
Organisms included Gram-positive cocci (2 strains of each): Methicillin-susceptible Staphylococcus aureus (MSSA), community-associated (CA) and healthcare-associated (HA) methicillin-resistant Staphylococcus aureus (MRSA), vancomycin-intermediate Staphylococcus aureus (VISA), vancomycin-resistant Staphylococcus aureus (VRSA), methicillin-resistant Staphylococcus epidermidis (MRSE), Streptococcus pyogenes, Streptococcus agalactiae, Streptococcus pneumoniae, Enterococcus faecalis, Enterococcus faecium and vancomycin-resistant enterococcus (VRE). […]

P. aeruginosa = assay: Checkerboard assay (FIC index); format: cell-based, Pseudomonas aeruginosa; settings: antibiotic combined with PEP35
Method: as §9, §6, §10, §11, §12

K. pneumoniae = assay: Checkerboard assay (FIC index); format: cell-based, Klebsiella pneumoniae; settings: antibiotic combined with PEP35
Method: as §9, §6, §10, §11, §12

E. cloacae = assay: Checkerboard assay (FIC index); format: cell-based, Enterobacter cloacae; settings: antibiotic combined with PEP35
Method: as §9, §6, §10, §11, §12

“GAHWQFNALTVRGGGS (Laboratory designed HA inhibitor peptide) [PEP-52]” was tested, and the MIC (VISA; VISA 92, in µg/mL) was > 512 and 1024, the MIC (VISA; VISA 95, in µg/mL) was > 512 and 1024 and the MIC (VISA; VISA 96, in µg/mL) was > 512 and 1024. For the same substance, the “synergistic activity (in words)” value [1] was “no synergistic activity”, the MIC (E. coli [2]) was > 512 and > 1024 and the “activity (in words)” value [3] was “no activity; also recorded: not active”. For the same substance, the MIC (VRSA; VRSA 105) was > 512 and > 1024, the MIC (VRSA; VRSA 106) was > 512 and > 1024 and the MIC (HA-MRSA; HA-MRSA 70798 (USA100/800)) was > 512 and > 1024. The MIC (HA-MRSA; HA-MRSA 77090 (USA100/800), in µg/mL) was > 512 and 1024, the MIC (CA-MRSA; CA-MRSA 69615 (USA400)) was > 512 and 1024 and the MIC (CA-MRSA; CA-MRSA 70857 (USA400)) was > 512 and 1024.

For gentamicin, the “Avg ΣFIC (range)” value (P. mirabilis; P. mirabilis 80267) was >1*, the “Avg ΣFIC (range)” value (P. mirabilis; P. mirabilis 81569) was >1* and the “Avg ΣFIC (range)” value (K. oxytoca; K. oxytoca 75316) was 1.24 (0.75-2.12). The “Avg ΣFIC (range)” value (K. oxytoca; K. oxytoca 76874) was 1.10 (0.75-2.06), the “Avg ΣFIC (range)” value (S. maltophilia; S. maltophilia 73062) was 1.4 (0.62-2.25) and the “Avg ΣFIC (range)” value (S. maltophilia; S. maltophilia 77424) was 1.99 (1.0-4.25) and 1.98 (1.06-4.25). For the same substance, the “Avg ΣFIC (range)” value (E. coli [4]; E. coli 69716) was 1.4 (1.06-2.12), the “Avg ΣFIC (range)” value (E. coli [4]; E. coli 70752) was 1.05 (0.75-1.25) and the “Avg ΣFIC (range)” value (P. aeruginosa; P. aeruginosa 70849) was 1.11 (1.03-1.25). For the same substance, the “Avg ΣFIC (range)” value (P. aeruginosa; P. aeruginosa 71841) was 1.05 (0.75-1.25), the “Avg ΣFIC (range)” value (K. pneumoniae; K. pneumoniae 70508) was 1.13 (1.0-1.25) and the “Avg ΣFIC (range)” value (K. pneumoniae; K. pneumoniae 77081) was 0.89 (0.56-1.25). For the same substance, the “Avg ΣFIC (range)” value (E. cloacae; E. cloacae 80194) was 1.4 (0.5-2.12) and the “Avg ΣFIC (range)” value (E. cloacae; E. cloacae 83128) was 1.05 (0.75-1.25).
